Reference: patent publication US10604523B2, “1-aryl-4-methyl-[1,2,4]triazolo[4,3-a]quinoxaline derivatives” (Janssen Pharmaceutica NV, priority 2011, dated 2020)
Where two headings read alike, the source gives them in different places.

How the values were obtained:
[1] = target: T1, Rat recombinant PDE10A (rPDE10A2) (Rattus norvegicus, UniProt Q9QYJ6); experiment: In vitro assay PDE10A (SPA, 3H-cAMP); format: biochemical; details: -log IC50 expressed in mol/L, rPDE10A2, 60 nM cAMP
T1 construct: made in house; host or cells: Sf9 insect cells (baculovirus)
T1 sequence (Q9QYJ6 1-794): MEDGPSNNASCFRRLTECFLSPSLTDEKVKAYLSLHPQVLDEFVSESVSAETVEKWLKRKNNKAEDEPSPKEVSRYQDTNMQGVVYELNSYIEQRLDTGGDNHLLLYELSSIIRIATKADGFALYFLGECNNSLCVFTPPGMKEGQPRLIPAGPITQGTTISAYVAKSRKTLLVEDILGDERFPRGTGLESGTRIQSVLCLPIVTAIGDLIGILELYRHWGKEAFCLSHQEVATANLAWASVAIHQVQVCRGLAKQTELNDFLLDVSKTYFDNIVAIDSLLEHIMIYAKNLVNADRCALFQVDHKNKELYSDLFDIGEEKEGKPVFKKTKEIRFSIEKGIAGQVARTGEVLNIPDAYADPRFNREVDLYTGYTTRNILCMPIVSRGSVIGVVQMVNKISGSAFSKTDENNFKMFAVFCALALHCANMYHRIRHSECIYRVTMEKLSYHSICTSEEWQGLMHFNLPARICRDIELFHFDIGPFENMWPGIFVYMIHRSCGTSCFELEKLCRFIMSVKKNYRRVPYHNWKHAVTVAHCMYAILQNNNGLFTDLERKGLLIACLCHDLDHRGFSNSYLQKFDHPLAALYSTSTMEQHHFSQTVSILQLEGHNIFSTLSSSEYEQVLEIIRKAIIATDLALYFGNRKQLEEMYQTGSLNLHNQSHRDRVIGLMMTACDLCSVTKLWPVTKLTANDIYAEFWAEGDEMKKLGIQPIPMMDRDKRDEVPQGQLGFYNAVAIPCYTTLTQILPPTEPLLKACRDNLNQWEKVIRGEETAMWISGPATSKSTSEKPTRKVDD

[2] = tested on: cAMP and cGMP levels in the rat brain (hippocampus and striatum); experiment: Effect of PDE-inhibitors ex-vivo studies in rat: cAMP and cGMP levels in brain; details: 10 mg/kg s.c., -1 h
Experimental: Upon arrival, the animals (body weight 210-240 g) were housed in groups of 5 and fed normal chow at libitum.
Compounds and/or solvent were administered either orally, subcutaneously or IV. […] After microwave, the rats were decapitated and the heads cooled immediately with ice cold physiological saline. […] 10 vol (w/v) of 0.1N HCl were added. The tissue was homogenized for 3 min at 30 Hz using a Tissuelyser from Qiagen.
The homogenate was transferred into an Eppendorf tube (1.5 ml) and after centrifugation for 15 min at 1600 g in a pre-cooled (4C) Eppendorf centrifuge, the supernatant was collected and stored at −80° C. until analysis.
The cAMP and cGMP levels were measured in the rat brain (hippocampus and striatum) to establish in vivo target engagement and central pharmacological effect of PDE2 inhibition.

[3] = Brain radiometabolite analysis of [18F]B-23; format: in vivo, rat
Experimental: (§1) The metabolic stability of the tracer was studied in normal rats by determination of the relative amounts of parent tracer and radiometabolites in plasma and brain at 2 min and 10 min p.i. of the tracer. […] (n=1), blood was collected in lithium heparin containing tubes (4.5 mL LH PST tubes; BD vacutainer, BD, Franklin Lakes, USA) and stored on ice. Brain was dissected and rinsed with saline (decapitation was preferred since it was difficult to have the rat perfused already at 2 min p.i.). For the 10 min timepoint, rats (n=1) were injected with about 37 MBq of tracer and sacrificed at 10 min p.i by administering an overdose of Nembutal (CEVA Sante Animale, 200 mg/kg intraperitoneal). The rats were perfused by injection of saline into the left ventricle until the liver turned pale. During perfusion, blood was collected and stored on ice. Brain was isolated.
For the brain radiometabolite analysis, cerebrum and cerebellum were separated and homogenized in 3 mL and 2 mL of acetonitrile respectively, for about 3 min. A volume of 1 mL of this homogenate was diluted with an equal volume of water and 1 mL of the supernatant was filtered through a 0.22 μm filter (Millipore, Bedford, USA). About 0.5 mL of the filtrate was diluted with 0.1 mL of water and spiked with 10 μL of authentic reference material (1 mg/mL) for identification. A volume of 0.5 mL of the homogenate extracts were injected onto an HPLC system consisting of an analytical XBridge column (C18, 3.5 μm, 3 mm×100 mm, Waters) eluted with a mixture of 0.05 M sodium acetate (pH 5.5) and CH3CN (76:24 v/v) at a flow rate of 0.8 mL/min. The HPLC eluate was collected as 0.8-mL fractions (fraction collection per minute) after passing through the UV detector (254 nm), and radioactivity in the fractions was measured using an automated gamma counter. The peak corresponding to the intact tracer eluted around 10 min, the polar radiometabolite(s) around 5 min.

[4] = Plasma radiometabolite analysis of [18F]B-23; format: in vivo, rat
Experimental: as §1
For the plasma radiometabolite analysis, the blood was centrifugated for 10 min at 3000 rpm to separate the plasma. A volume of about 0.1 mL of plasma sample was isolated and spiked with about 10 μL of authentic non-radioactive reference material (1 mg/mL) for identification. The plasma was then injected onto an HPLC system consisting of a Chromolith Performance column (C18, 3 mm×100 mm, Merck) that was eluted with mixtures of 0.05 M NaOAc pH 5.5 (solvent A) and acetonitrile (solvent B). The following method was used for the analysis: isocratic elution with 100% A for 4 min at a flow rate of 0.5 mL/min, then linear gradient to 90% B by 14 min at a flow rate of 1 mL/min, and isocratic elution with a mixture of 10% A and 90% B at a flow rate of 1 mL/min until 17 min. After passing through an in-line UV detector (254 nm) and over a 3 in. NaI(Tl) scintillation detector connected to a single channel analyzer (Gabi box, Raytest, Straubenhardt Germany), the HPLC eluate was collected per minute using an automatic fraction collector. The radioactivity in all fractions was measured using an automated gamma counter. The peak corresponding to the intact tracer eluted at ˜11 min. Polar radiometabolite(s) were eluting from 1 to 3 min. Slightly more polar radiometabolites (relatively to the polarity of the intact tracer) were eluting just before the intact tracer. Faster metabolisation is observed in plasma compared to brain. At 2 min p.i., about 70% of the recovered radioactivity was present as intact tracer. Two more polar radiometabolites (M1, M3) were observed of which one (M3) was closely eluting to the intact tracer. At 10 min p.i., the presence of a large amount of a third polar metabolite (M2, also closely eluting to the parent compound) was observed which accounted for about 60% of the recovered radioactivity. At 10 min p.i., only ˜20% of the recovered radioactivity was still present as intact tracer.

[5] = male, Wistar, rat, in vivo
Experimental: (§2) The biodistribution study was carried out in male Wistar rats (body weight 320-370 g) at 2 min, 10 min and 30 min post injection (p.i.) (n=3/time point). […] Blood and major organs were collected in tared tubes and weighed. The radioactivity in blood, organs and other body parts was measured using an automated gamma counter. The distribution of radioactivity in different parts of the body at different time points p.i. of the tracer was calculated and expressed as percentage of injected dose (% ID), and as standardized uptake values (SUV) for the selected organs. % ID is calculated as counts per minute (cpm) in organ/total cpm recovered. SUVs are calculated as (radioactivity in cpm in organ/weight of the organ in g)/(total counts recovered/body weight in g). For calculation of total radioactivity in blood, blood mass was assumed to be 7% of the body mass.

[6] = Biodistribution study of [18F]B-23; details: mean ± SD; for SUV Blood / SUV Cerebellum / SUV Cortex / SUV Hippocampus / SUV Rest of cerebrum / SUV Striatum: n = 3; for % ID Blood / % ID Carcass / % ID Cerebellum / % ID Cerebrum total / % ID Cortex / % ID Heart / % ID Hippocampus / % ID Intestines / % ID Kidneys / % ID Liver / % ID Lungs / % ID Rest of cerebrum / % ID Spleen + Pancreas / % ID Stomach / % ID Striatum / % ID Urine: normal rats, n=3
Experimental: as §2

## CCCCOc1cncc(-c2nnc3c(C)nc4ccc(CN(C)C)cc4n23)c1 [Compound B-197]
[1]
  PIC50 PDE10: 5.03
[2]
  Hippocampus cAMP (% of Control): 122 ± 10 % of Control
  Hippocampus cGMP (% of Control): 104 ± 32 % of Control
  Striatum cAMP (% of Control): 89 ± 6 % of Control
  Striatum cGMP (% of Control): 128 ± 26 % of Control

## CCCCOc1ccc(Cl)c(-c2nnc3c(C)nc4ccc(CN(C)C)cc4n23)c1 [Compound B-88]
[1]; read-out: PIC50 PDE10 (converted)
  IC50: 2140 nM
[2]
  Hippocampus cAMP (% of Control): 117 ± 20 % of Control
  Hippocampus cGMP (% of Control): 150 ± 42 % of Control
  Striatum cAMP (% of Control): 88 ± 12 % of Control
  Striatum cGMP (% of Control): 121 ± 20 % of Control

## Cc1nc2ccc(CN3CCOCC3)cc2n2c(-c3c([18F])cccc3Cl)nnc12 [[^18F]B-23, 1-(2-Chloro-6-[^18F]fluorophenyl)-4-methyl-8-(morpholin-4-ylmethyl)[1,2,4]triazolo[4,3-a]quinoxaline]
[3]; 2 and 10 min p.i.
  apolar radiometabolites in brain: No apolar radiometabolites were detected
[3]; 2 min p.i., n=1
  intact tracer in cerebrum and cerebellum: almost all of the recovered radioactivity in cerebrum and in cerebellum was present as intact tracer
[3]; 10 min p.i., n=1
  % of intact tracer in cerebellum: 82%
[4]; 2 and 10 min p.i.
  apolar radiometabolites in plasma: No apolar radiometabolites were detected
[4]; 2 min p.i., n=1
  recovered radioactivity present as intact tracer in plasma: about 70%
[4]; 10 min p.i., n=1
  recovered radioactivity present as intact tracer in plasma: ~20%
[5]; 2 min
  % of the ID in the cerebellum: ~0.1%
  % of the ID in the cerebrum: ~1.0%
  % of the injected dose present in the blood: about 6.7%
  total brain uptake of the tracer (% ID): ~1.2%
[5]; 10 min
  % ID in the brain: 0.2%
[5]; 30 min
  % ID in the brain: 0.1 % ID
  % ID in the urine and the kidneys: 19 % ID
  % of ID present in the liver and intestines: 49%
  % of the injected dose present in the blood: 4.1%
[6]; 2 min p.i.
  SUV Blood: 0.96 ± 0.05
  SUV Cerebellum: 1.22 ± 0.23
  SUV Cortex: 2.36 ± 0.48
  SUV Hippocampus: 1.87 ± 0.22
  SUV Rest of cerebrum: 2.63 ± 0.41
  SUV Striatum: 4.36 ± 0.42
[6]; 10 min p.i.
  SUV Blood: 0.90 ± 0.08
  SUV Cerebellum: 0.27 ± 0.02
  SUV Cortex: 0.53 ± 0.02
  SUV Hippocampus: 0.33 ± 0.04
  SUV Rest of cerebrum: 0.57 ± 0.02
  SUV Striatum: 1.77 ± 0.08
[6]; 30 min p.i.
  SUV Blood: 0.59 ± 0.08
  SUV Cerebellum: 0.12 ± 0.04
  SUV Cortex: 0.15 ± 0.04
  SUV Hippocampus: 0.14 ± 0.04
  SUV Rest of cerebrum: 0.22 ± 0.08
  SUV Striatum: 0.61 ± 0.20

## Cc1nc2ccc(CN3CCOCC3)cc2n2c(-c3c([18F])cccc3Cl)nnc12 [[18F]B-23, 1-[2-Chloro-6-(^18F)fluorophenyl]-4-methyl-8-(morpholin-4-ylmethyl)[1,2,4]triazolo[4,3-a]quinoxaline]
[4]; rat plasma, 2 min p.i., n=1
  % in plasma Intact tracer: 70%
  % in plasma Polar metabolite M1: 16%
  % in plasma Polar metabolite M3: 14%
[4]; rat plasma, 10 min p.i., n=1
  % in plasma Intact tracer: 18%
  % in plasma Polar metabolite M1: 10%
  % in plasma Polar metabolite M2: 61%
  % in plasma Polar metabolite M3: 12%
[6]; 2 min p.i.
  % ID Blood: 6.69 ± 0.4 % ID
  % ID Carcass: 42.54 ± 4.8 % ID
  % ID Cerebellum: 0.096 ± 0.022 % ID
  % ID Cerebrum total: 1.030 ± 0.130 % ID
  % ID Cortex: 0.086 ± 0.017 % ID
  % ID Heart: 0.81 ± 0.0 % ID
  % ID Hippocampus: 0.036 ± 0.002 % ID
  % ID Intestines: 9.51 ± 1.1 % ID
  % ID Kidneys: 4.68 ± 0.7 % ID
  % ID Liver: 30.79 ± 4.6 % ID
  % ID Lungs: 2.27 ± 1.2 % ID
  % ID Rest of cerebrum: 0.809 ± 0.130 % ID
  % ID Spleen + Pancreas: 1.57 ± 0.1 % ID
  % ID Stomach: 2.44 ± 0.3 % ID
  % ID Striatum: 0.098 ± 0.010 % ID
  % ID Urine: 0.25 ± 0.1 % ID
[6]; 10 min p.i.
  % ID Blood: 6.27 ± 0.5 % ID
  % ID Carcass: 37.39 ± 4.9 % ID
  % ID Cerebellum: 0.020 ± 0.002 % ID
  % ID Cerebrum total: 0.212 ± 0.006 % ID
  % ID Cortex: 0.016 ± 0.004 % ID
  % ID Heart: 0.23 ± 0.0 % ID
  % ID Hippocampus: 0.006 ± 0.001 % ID
  % ID Intestines: 10.97 ± 1.5 % ID
  % ID Kidneys: 6.02 ± 1.2 % ID
  % ID Liver: 37.83 ± 3.3 % ID
  % ID Lungs: 0.68 ± 0.1 % ID
  % ID Rest of cerebrum: 0.159 ± 0.006 % ID
  % ID Spleen + Pancreas: 0.42 ± 0.0 % ID
  % ID Stomach: 2.77 ± 0.8 % ID
  % ID Striatum: 0.031 ± 0.005 % ID
  % ID Urine: 0.61 ± 0.5 % ID
[6]; 30 min p.i.
  % ID Blood: 4.10 ± 0.6 % ID
  % ID Carcass: 23.75 ± 1.9 % ID
  % ID Cerebellum: 0.011 ± 0.005 % ID
  % ID Cerebrum total: 0.084 ± 0.026 % ID
  % ID Cortex: 0.006 ± 0.003 % ID
  % ID Heart: 0.12 ± 0.0 % ID
  % ID Hippocampus: 0.003 ± 0.001 % ID
  % ID Intestines: 19.75 ± 5.6 % ID
  % ID Kidneys: 8.24 ± 0.3 % ID
  % ID Liver: 29.30 ± 4.8 % ID
  % ID Lungs: 0.46 ± 0.0 % ID
  % ID Rest of cerebrum: 0.064 ± 0.024 % ID
  % ID Spleen + Pancreas: 0.32 ± 0.1 % ID
  % ID Stomach: 4.81 ± 0.3 % ID
  % ID Striatum: 0.012 ± 0.001 % ID
  % ID Urine: 10.80 ± 1.2 % ID
